From PMC9958325 (Nature Communications, 2023)
Where “and” joins values, the source holds several entries; their conditions need not be identical. Identical values can stand only once. Like-named read-outs stand apart in the source and are kept apart here.

Tests used:
[1] = target: T1, human calpain (Homo sapiens, UniProt P07384); assay: Human calpain activity assay; type: biochemical; details: triplicate, read-out: %inhibition against humanCalpain
T1 sequence (P07384 2-714): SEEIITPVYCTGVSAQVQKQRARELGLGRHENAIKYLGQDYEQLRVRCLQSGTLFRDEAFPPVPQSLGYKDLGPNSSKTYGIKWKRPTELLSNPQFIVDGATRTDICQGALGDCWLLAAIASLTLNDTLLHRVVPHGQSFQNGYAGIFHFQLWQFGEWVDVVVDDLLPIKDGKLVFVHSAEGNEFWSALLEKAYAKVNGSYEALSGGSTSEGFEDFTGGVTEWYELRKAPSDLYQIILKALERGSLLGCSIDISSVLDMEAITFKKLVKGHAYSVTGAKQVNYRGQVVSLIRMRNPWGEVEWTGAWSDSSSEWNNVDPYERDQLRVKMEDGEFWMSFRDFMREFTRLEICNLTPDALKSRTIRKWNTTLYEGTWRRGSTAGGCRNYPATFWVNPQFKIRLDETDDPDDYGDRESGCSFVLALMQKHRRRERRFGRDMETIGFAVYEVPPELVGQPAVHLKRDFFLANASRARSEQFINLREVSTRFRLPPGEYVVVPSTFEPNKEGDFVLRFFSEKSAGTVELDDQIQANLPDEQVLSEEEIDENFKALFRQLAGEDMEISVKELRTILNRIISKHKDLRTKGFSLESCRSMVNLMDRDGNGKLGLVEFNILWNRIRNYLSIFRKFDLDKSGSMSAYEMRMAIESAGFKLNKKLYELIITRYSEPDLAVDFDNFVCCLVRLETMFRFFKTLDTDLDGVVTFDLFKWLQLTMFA
T1 sequence (P04632 1-268 partner): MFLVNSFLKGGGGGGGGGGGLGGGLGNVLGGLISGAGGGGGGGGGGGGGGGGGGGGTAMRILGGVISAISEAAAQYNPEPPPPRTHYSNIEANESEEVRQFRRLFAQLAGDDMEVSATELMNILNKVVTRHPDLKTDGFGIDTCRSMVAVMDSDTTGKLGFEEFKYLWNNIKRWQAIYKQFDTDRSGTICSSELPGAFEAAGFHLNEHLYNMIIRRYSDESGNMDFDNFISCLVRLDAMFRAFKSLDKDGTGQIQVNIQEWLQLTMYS

[2] = system: SARS-CoV-2^WK-521; assay: microbe, parasite or virus in culture; type: cell-based; parameters: EC95, individual assays / EC95, Average: unit: µM
[3] = system: SARS-CoV-2 TKYX00012/ο BA.1; assay: microbe, parasite or virus in culture; type: cell-based
[4] = system: SARS-CoV-2 TKYS02037/ο BA.2; assay: microbe, parasite or virus in culture; type: cell-based
[5] = system: SARS-CoV-2 TKYTS14631/ο BA.5; assay: microbe, parasite or virus in culture; type: cell-based
[6] = system: SARS-CoV-2 UT-NCD1757-1N/ο BA.2.75; assay: microbe, parasite or virus in culture; type: cell-based
[7] = system: SARS-CoV-2^WK521 in HeLa-ACE2-TMPRSS2 cells; assay: Antiviral assay, HeLa-ACE2-TMPRSS2 cells, WK521; type: cell-based
[8] = system: SARS-CoV-2^WK521 in A549-ACE2-TMPRSS2 cells; assay: Antiviral assay, A549-ACE2-TMPRSS2 cells, WK521; type: cell-based
[9] = Pharmacokinetic study in PXB-mice (human liver-chimeric); details: 10 mg/kg; for Plasma concentration: PXB-mice, i.v. 10 mg/kg, individual mice

## CC(C)(C)[C@H](NC(=O)C(F)(F)F)C(=O)N1C[C@H]2[C@@H]([C@H]1C(=O)N[C@H](C#N)C[C@@H]1CCNC1=O)C2(C)C [Nirmatrelvir, reference compound]
[1]; 0.000128 µM
  inhibition at 0.000128 µM: 0%
[1]; 0.00064 µM
  inhibition at 0.00064 µM: 0%
[1]; 0.0032 µM
  inhibition at 0.0032 µM: 0%
[1]; 0.08 µM
  inhibition at 0.08 µM: 0%
[1]; 0.4 µM
  inhibition at 0.4 µM: 0%
[2]
  EC95, Average: 7.815
  EC95, individual assays: 8.01 and 9.89 and 6.31 and 7.05
  SARS-CoV2 RNA VeroE6 cell-based assay EC95: 7.81 ± 1.55 µM
[2]; Severe acute respiratory syndrome coronavirus 2, Vero C1008, read-out: EC50, Average
  EC50: 942 nM
[2]; Severe acute respiratory syndrome coronavirus 2, Vero C1008, read-out: EC50, VeroE6 + 2 µM CP100356
  EC50: 25 nM
[2]; Severe acute respiratory syndrome coronavirus 2, Vero C1008, read-out: EC50, VeroE6 with CP100356, Average
  EC50: 25 nM
[2]; Severe acute respiratory syndrome coronavirus 2, Vero C1008, read-out: EC50, VeroE6 with CP100356, individual assays
  EC50: 22 nM
[2]; Severe acute respiratory syndrome coronavirus 2, Vero C1008, read-out: SARS-CoV2 RNA VeroE6 cell-based assay EC50
  EC50: 940 ± 210 nM
[2]; read-out: EC50, Average
  EC50: 1020 nM
[2]; read-out: EC50, VeroE6 with CP100356, individual assays
  EC50: 27 nM
[2]; read-out: EC50, individual assays
  EC50: 1090 nM and 700 nM and 1150 nM and 830 nM and 1470 nM
[3]; Severe acute respiratory syndrome coronavirus 2, Vero C1008, read-out: EC50 against KTKYX00012/ο BA.1
  EC50: 1050 ± 61 nM
[3]; Severe acute respiratory syndrome coronavirus 2, Vero C1008, read-out: EC50 ο BA1, Average
  EC50: 1050 nM
[3]; Severe acute respiratory syndrome coronavirus 2, Vero C1008, read-out: EC50 ο BA1, individual assays
  EC50: 1100 nM
[3]; read-out: EC50 ο BA1, individual assays
  EC50: 1060 nM and 980 nM
[4]; Severe acute respiratory syndrome coronavirus 2, Vero C1008, read-out: EC50 against TKYVS2037/ο BA.2
  EC50: 1240 ± 125 nM
[4]; Severe acute respiratory syndrome coronavirus 2, Vero C1008, read-out: EC50 ο BA2, individual assays
  EC50: 1230 nM
[4]; read-out: EC50 ο BA2, individual assays
  EC50: 1120 nM and 1370 nM
[5]; Severe acute respiratory syndrome coronavirus 2, Vero C1008, read-out: EC50 against TKYTS14631/ο BA.5
  EC50: 1080 ± 150 nM
[5]; Severe acute respiratory syndrome coronavirus 2, Vero C1008, read-out: EC50 ο BA5, Average
  EC50: 1080 nM
[5]; Severe acute respiratory syndrome coronavirus 2, Vero C1008, read-out: EC50 ο BA5, individual assays
  EC50: 999 nM
[5]; read-out: EC50 ο BA5, individual assays
  EC50: 988 nM and 1250 nM
[6]; Severe acute respiratory syndrome coronavirus 2, Vero C1008, read-out: EC50 against UT-NCD1757-1N/ο BA.2.75
  EC50: 967 ± 135 nM
[6]; Severe acute respiratory syndrome coronavirus 2, Vero C1008, read-out: EC50 ο BA2.75, Average
  EC50: 967 nM
[6]; Severe acute respiratory syndrome coronavirus 2, Vero C1008, read-out: EC50 ο BA2.75, individual assays
  EC50: 830 nM
[6]; read-out: EC50 ο BA2.75, individual assays
  EC50: 970 nM and 1100 nM
[7]; Severe acute respiratory syndrome coronavirus 2, SARS-CoV-2^WK521, read-out: EC50, HeLa-ACE2-TMPRSS2
  EC50: 240 ± 50 nM
[7]; Severe acute respiratory syndrome coronavirus 2, read-out: EC50, HeLa-AEC2-TMPRSS2, individual assays, source data
  EC50: 300 nM
[7]; Severe acute respiratory syndrome coronavirus 2, source data, read-out: EC50, HeLa-AEC2-TMPRSS2, Average
  EC50: 237 nM
[7]; read-out: EC50, HeLa-AEC2-TMPRSS2, individual assays, source data
  EC50: 200 nM and 210 nM
[8]; Severe acute respiratory syndrome coronavirus 2, SARS-CoV-2^WK521, read-out: EC50, A549-ACE2-TMPRSS2
  EC50: 17 ± 3 nM
[8]; Severe acute respiratory syndrome coronavirus 2, source data, read-out: EC50, A549-AEC2-TMPRSS2, Average
  EC50: 17.4 nM
[8]; Severe acute respiratory syndrome coronavirus 2, source data, read-out: EC50, A549-AEC2-TMPRSS2, individual assays
  EC50: 20 nM
[8]; source data, read-out: EC50, A549-AEC2-TMPRSS2, individual assays
  EC50: 17.4 nM and 14.8 nM
[9]; PXB (human liver-chimeric), mouse, plasma, po, plasma concentration, 10 min, individual animals (3 per time point), LC/MS/MS
  concentration at 10 min: 1600 ng/mL
[9]; PXB (human liver-chimeric), mouse, plasma, po, plasma concentration, 240 min, individual animals (3 per time point), LC/MS/MS
  concentration at 240 min: 47.2 ng/mL
[9]; PXB (human liver-chimeric), mouse, plasma, po, plasma concentration, 1440 min, individual animals (3 per time point), LC/MS/MS
  concentration at 1440 min: 0.63 ng/mL
[9]; 10 min
  Plasma concentration: 5525.9 ng/mL and 4420.7 ng/mL
[9]; 0.17 hr
  Plasma concentration: 5530 ng/mL and 4420 ng/mL
[9]; 60 min
  Plasma concentration: 305.4 ng/mL and 496.6 ng/mL
[9]; 1 hr
  Plasma concentration: 310 ng/mL and 500 ng/mL
[9]; 240 min
  Plasma concentration: 10 ng/mL and 10.6 ng/mL and 46.3 ng/mL
[9]; 4 hr
  Plasma concentration: 0.01 µg/ml (2×) and 0.05 µg/ml
